# Assay results published in US8497381B2, “Antagonists of prostaglandin D2 receptors” (Panmira Pharmaceuticals, LLC, priority 2008, dated 2013).
# Biological target: T1, human DP2 receptor (Homo sapiens, UniProt Q9Y5Y4)
# T1 construct: expressed in transfected cells
# T1 sequence (Q9Y5Y4 1-395): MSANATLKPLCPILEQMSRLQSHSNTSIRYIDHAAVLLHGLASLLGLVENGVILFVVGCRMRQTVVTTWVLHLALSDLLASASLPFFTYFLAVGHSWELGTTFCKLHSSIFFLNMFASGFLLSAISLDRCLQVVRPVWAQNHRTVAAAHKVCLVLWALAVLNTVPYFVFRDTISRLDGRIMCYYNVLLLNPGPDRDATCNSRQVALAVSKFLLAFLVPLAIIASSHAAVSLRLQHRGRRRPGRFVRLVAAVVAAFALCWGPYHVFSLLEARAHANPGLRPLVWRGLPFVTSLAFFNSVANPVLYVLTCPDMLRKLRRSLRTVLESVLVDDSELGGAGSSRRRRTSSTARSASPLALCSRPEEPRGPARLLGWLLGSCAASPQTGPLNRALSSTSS
# Test: DP2/CRTH2 binding assay (radioligand binding using [3H]PGD2)
# Details: [3H]PGD2, membranes of HEK293 cells stably expressing recombinant human DP2; read-out: hDP2 binding
# Protocol: The ability of a compound to bind to the human DP2 receptor is assessed via a radioligand binding assay using [^3H]PGD2. HEK293 cells stably expressing recombinant human DP2 are resuspended in 10 mM Hepes, 7.4 containing 1 mM DTT, lysed and centrifuged at 75,000×g to pellet the membranes. The membranes are resuspended in 10 mM Hepes, 7.4 containing 1 mM DTT and 10% glycerol to approximately 5 mg protein/ml. Membranes (2-10 μg protein/well) are incubated in 96-well plates with 1 nM [^3H]PGD2 and test compound in Assay Buffer (50 mM Hepes, 10 mM MnCl2, 1 mM EDTA, plus or minus 0.2% human serum albumin, pH 7.4) for 60 minutes at room temperature. The reactions are terminated by rapid filtration through Whatman GF/C glass fibre filter plates. The filter plates were pre-soaked in 0.33% polythylenimine for 30 minutes at room temperature then washed in Wash Buffer (50 mM Hepes, 0.5 M NaCl pH 7.4) prior to harvesting. After harvesting, the filter plates are washed 3 times with 1 ml cold Wash Buffer then dried. Scintillant is then added to the plates and the radioactivity retained on the filters is determined on a Packard TopCount (Perkin Elmer). Specific binding is determined as total radioactive binding minus non-specific binding in the presence of 10 μM PGD2. IC50s were determined using GraphPad prism analysis of drug titration curves.
row,IC50 [nM],Structure (SMILES)
1,< 300,"COc1ccc(CC(=O)O)cc1-c1ccc(C(F)(F)F)cc1CN1CCOC1=O [Compound 1-1, [6-Methoxy-2′-(2-oxo-oxazolidin-3-ylmethyl)-4′-trifluoromethyl-biphenyl-3-yl]-acetic acid]"
2,300 to 1000,"COc1ccc(CC(=O)O)cc1-c1ccccc1CN1C(=O)O[C@H](c2ccccc2)[C@@H]1C [Compound 1-3, [6-Methoxy-2′-((4S,5R)-4-methyl-2-oxo-5-phenyl-oxazolidin-3-ylmethyl)-biphenyl-3-yl]-acetic acid]"
3,< 300,"COc1ccc(CC(=O)O)cc1-c1ccc(F)cc1CN1C(=O)O[C@H](c2ccccc2)[C@@H]1C [Compound 1-4, [4′-Fluoro-6-methoxy-2′-((4S,5R)-4-methyl-2-oxo-5-phenyl-oxazolidin-3-ylmethyl)-biphenyl-3-yl]-acetic acid]"
4,> 1000,"COc1ccc(-c2cc(CC(=O)O)ccc2OC)c(CN2C(=O)O[C@H](c3ccccc3)[C@@H]2C)c1 [Compound 1-5, [6,4′-Dimethoxy-2′-((4S,5R)-4-methyl-2-oxo-5-phenyl-oxazolidin-3-ylmethyl)-biphenyl-3-yl]-acetic acid]"
5,< 300,"COc1ccc(-c2ccc(C(F)(F)F)cc2CN2C(=O)O[C@H](c3ccccc3)[C@@H]2C)cc1CC(=O)O [Compound 1-8, [4-Methoxy-2′-((4S,5R)-4-methyl-2-oxo-5-phenyl-oxazolidin-3-ylmethyl)-4′-trifluoromethyl-biphenyl-3-yl]-acetic acid]"
6,> 1000,"COc1ccc(CC(=O)O)cc1-c1ccc(C(F)(F)F)cc1CN1C(=O)O[C@@H](c2ccccc2)[C@H]1C [Compound 1-11, [6-Methoxy-2′-((4R,5S)-4-methyl-2-oxo-5-phenyl-oxazolidin-3-ylmethyl)-4′-trifluoromethyl-biphenyl-3-yl]-acetic acid]"
7,< 300,"C[C@H]1[C@@H](c2ccccc2)OC(=O)N1Cc1cc(C(F)(F)F)ccc1-c1cc(CC(=O)O)ccc1-c1ccccc1 [Compound 1-19, [2″-((4S,5R)-4-Methyl-2-oxo-5-phenyl-oxazolidin-3-ylmethyl)-4″-trifluoromethyl-[1,1′;2′,1″]terphenyl-4′-yl]-acetic acid]"
8,300 to 1000,"C[C@H]1[C@@H](c2ccccc2)OC(=O)N1Cc1cc(C(F)(F)F)ccc1-c1cc(CC(=O)O)ccc1-c1cnn(C)c1 [Compound 1-21, [2′-((4S,5R)-4-Methyl-2-oxo-5-phenyl-oxazolidin-3-ylmethyl)-6-(1-methyl-1H-pyrazol-4-yl)-4′-trifluoromethyl-biphenyl-3-yl]-acetic acid]"
9,> 1000,"COc1ccc(CC(=O)O)cc1-c1ccc(C(F)(F)F)cc1CN1C(=O)N(CC(=O)O)C(C)(c2ccccc2)C1=O (stereo not shown) [Compound 2-2, [2′-(3-Carboxymethyl-4-methyl-2,5-dioxo-4-phenyl-imidazolidin-1-ylmethyl)-6-methoxy-4′-trifluoromethyl-biphenyl-3-yl]-acetic acid]"

# The remaining lines, values behind:
row,Structure (SMILES),IC50 [nM]
1,"COc1ccc(-c2ccc(C(F)(F)F)cc2CN2CCOC2=O)cc1CC(=O)O [Compound 1-2, [4-Methoxy-2′-(2-oxo-oxazolidin-3-ylmethyl)-4′-trifluoromethyl-biphenyl-3-yl]-acetic acid]",< 300
2,"C[C@H]1[C@@H](c2ccccc2)OC(=O)N1Cc1cc(C(F)(F)F)ccc1-c1cccc(CC(=O)O)c1 [Compound 1-6, [2′-((4S,5R)-4-Methyl-2-oxo-5-phenyl-oxazolidin-3-ylmethyl)-4′-trifluoromethyl-biphenyl-3-yl]-acetic acid]",300 to 1000
3,"C[C@H]1[C@@H](c2ccccc2)OC(=O)N1Cc1cc(C(F)(F)F)ccc1-c1ccc(F)c(CC(=O)O)c1 [Compound 1-7, [4-Fluoro-2′-((4S,5R)-4-methyl-2-oxo-5-phenyl-oxazolidin-3-ylmethyl)-4′-trifluoromethyl-biphenyl-3-yl]-acetic acid]",300 to 1000
4,"C[C@H]1[C@@H](c2ccccc2)OC(=O)N1Cc1cc(C(F)(F)F)ccc1-c1cc(CC(=O)O)ccc1F [Compound 1-9, [6-Fluoro-2′-((4S,5R)-4-methyl-2-oxo-5-phenyl-oxazolidin-3-ylmethyl)-4′-trifluoromethyl-biphenyl-3-yl]-acetic acid]",< 300
5,"COc1ccc(CC(=O)O)cc1-c1ccc(C(F)(F)F)cc1CN1C(=O)O[C@H](c2ccccc2)[C@@H]1C [Compound 1-10, [6-Methoxy-2′-((4S,5R)-4-methyl-2-oxo-5-phenyl-oxazolidin-3-ylmethyl)-4′-trifluoromethyl-biphenyl-3-yl]-acetic acid]",< 300
6,"COc1ccc(C(C)C(=O)O)cc1-c1ccc(C(F)(F)F)cc1CN1C(=O)O[C@H](c2ccccc2)[C@@H]1C (stereo partly drawn) [Compound 1-12, 2-[6-Methoxy-2′-((4S,5R)-4-methyl-2-oxo-5-phenyl-oxazolidin-3-ylmethyl)-4′-trifluoromethyl-biphenyl-3-yl]-propionic acid]",< 300
7,"COc1ccc(CC(=O)O)cc1-c1ccc(C(F)(F)F)cc1CN1C(=O)O[C@H](c2cc(C(F)(F)F)cc(C(F)(F)F)c2)[C@@H]1C [Compound 1-13, {2′-[(4S,5R)-5-(3,5-Bis-trifluoromethyl-phenyl)-4-methyl-2-oxo-oxazolidin-3-ylmethyl]-6-methoxy-4′-trifluoromethyl-biphenyl-3-yl}-acetic acid]",< 300
8,"CCOc1ccc(CC(=O)O)cc1-c1ccc(C(F)(F)F)cc1CN1C(=O)O[C@H](c2ccccc2)[C@@H]1C [Compound 1-14, [6-Ethoxy-2′-((4S,5R)-4-methyl-2-oxo-5-phenyl-oxazolidin-3-ylmethyl)-4′-trifluoromethyl-biphenyl-3-yl]-acetic acid]",< 300
9,"C[C@H]1[C@@H](c2ccccc2)OC(=O)N1Cc1cc(C(F)(F)F)ccc1-c1cc(CC(=O)O)ccc1OCC1CC1 [Compound 1-15, [6-Cyclopropylmethoxy-2′-((4S,5R)-4-methyl-2-oxo-5-phenyl-oxazolidin-3-ylmethyl)-4′-trifluoromethyl-biphenyl-3-yl]-acetic acid]",< 300
10,"C[C@H]1[C@@H](c2ccccc2)OC(=O)N1Cc1cc(C(F)(F)F)ccc1-c1cc(CC(=O)O)ccc1OCC(=O)O [Compound 1-16, [6-Carboxymethoxy-2′-((4S,5R)-4-methyl-2-oxo-5-phenyl-oxazolidin-3-ylmethyl)-4′-trifluoromethyl-biphenyl-3-yl]-acetic acid]",300 to 1000
11,"C[C@H]1[C@@H](c2ccccc2)OC(=O)N1Cc1cc(C(F)(F)F)ccc1-c1cc(CC(=O)O)ccc1OCc1ccccc1 [Compound 1-17, [6-Benzyloxy-2′-((4S,5R)-4-methyl-2-oxo-5-phenyl-oxazolidin-3-ylmethyl)-4′-trifluoromethyl-biphenyl-3-yl]-acetic acid]",< 300
12,"C[C@H]1[C@@H](c2ccccc2)OC(=O)N1Cc1cc(C(F)(F)F)ccc1-c1cc(CC(=O)O)ccc1OCc1ccc(Cl)cc1 [Compound 1-18, [6-(4-Chloro-benzyloxy)-2′-((4S,5R)-4-methyl-2-oxo-5-phenyl-oxazolidin-3-ylmethyl)-4′-trifluoromethyl-biphenyl-3-yl]-acetic acid]",< 300
13,"C[C@H]1[C@@H](c2ccccc2)OC(=O)N1Cc1cc(C(F)(F)F)ccc1-c1cc(CC(=O)O)ccc1-c1cccnc1 [Compound 1-20, [2′-((4S,5R)-4-Methyl-2-oxo-5-phenyl-oxazolidin-3-ylmethyl)-6-pyridin-3-yl-4′-trifluoromethyl-biphenyl-3-yl]-acetic acid]",< 300
14,"COc1ccc(CC(=O)O)cc1-c1ccc(C(F)(F)F)cc1CN1C(=O)NC(C)(c2ccccc2)C1=O (stereo not shown) [Compound 2-1, [6-Methoxy-2′-(4-methyl-2,5-dioxo-4-phenyl-imidazolidin-1-ylmethyl)-4′-trifluoromethyl-biphenyl-3-yl]-acetic acid]",> 1000
15,"COc1ccc(CC(=O)O)cc1-c1ccc(C(F)(F)F)cc1CN1CCN=C1C [Compound 3-1, [6-Methoxy-2′-(2-methyl-4,5-dihydro-imidazol-1-ylmethyl)-4′-trifluoromethyl-biphenyl-3-yl]-acetic acid]",> 1000
16,"O=C(O)CCn1c2c(c3ccccc31)C[C@H](NS(=O)(=O)c1ccc(F)cc1)CC2 [Ramatroban, reference compound]",300 to 1000
